Laboratory results reported in PMC9653409, “Generative deep learning enables the discovery of a potent and selective RIPK1 inhibitor” (Nature Communications, 2022).

Legend:
Assay in all cases: Kinase inhibitory activity profiling of RI-962@10 µM (406 kinases, Eurofins)
Type in all cases: biochemical
[1] = target: panel of human kinases (kinase named in endpoint) (Homo sapiens, UniProt O60674); details: 10 µM; read-out: Activity (%), JAK2(h)
Summary of the method: (§1)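 Radiometric filter-binding kinase assays: enzyme preincubated 15 min with compound in 8 mM MOPS pH 7.0, 0.2 mM EDTA, 250 μM peptide substrate, 10 mM magnesium acetate, 10 μM [γ-33P]-ATP. Reaction started with Mg/ATP, run 40 min at room temperature, stopped with phosphoric acid; 33P incorporation read by scintillation counting. Other kinases by similar protocols.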

[2] = target: panel of human kinases (kinase named in endpoint) (Homo sapiens, UniProt P29376); details: 10 µM; read-out: Activity (%), LTK(h)
Sequence of panel of human kinases (kinase named in endpoint) (Homo sapiens, UniProt P29376) (P29376 17-864): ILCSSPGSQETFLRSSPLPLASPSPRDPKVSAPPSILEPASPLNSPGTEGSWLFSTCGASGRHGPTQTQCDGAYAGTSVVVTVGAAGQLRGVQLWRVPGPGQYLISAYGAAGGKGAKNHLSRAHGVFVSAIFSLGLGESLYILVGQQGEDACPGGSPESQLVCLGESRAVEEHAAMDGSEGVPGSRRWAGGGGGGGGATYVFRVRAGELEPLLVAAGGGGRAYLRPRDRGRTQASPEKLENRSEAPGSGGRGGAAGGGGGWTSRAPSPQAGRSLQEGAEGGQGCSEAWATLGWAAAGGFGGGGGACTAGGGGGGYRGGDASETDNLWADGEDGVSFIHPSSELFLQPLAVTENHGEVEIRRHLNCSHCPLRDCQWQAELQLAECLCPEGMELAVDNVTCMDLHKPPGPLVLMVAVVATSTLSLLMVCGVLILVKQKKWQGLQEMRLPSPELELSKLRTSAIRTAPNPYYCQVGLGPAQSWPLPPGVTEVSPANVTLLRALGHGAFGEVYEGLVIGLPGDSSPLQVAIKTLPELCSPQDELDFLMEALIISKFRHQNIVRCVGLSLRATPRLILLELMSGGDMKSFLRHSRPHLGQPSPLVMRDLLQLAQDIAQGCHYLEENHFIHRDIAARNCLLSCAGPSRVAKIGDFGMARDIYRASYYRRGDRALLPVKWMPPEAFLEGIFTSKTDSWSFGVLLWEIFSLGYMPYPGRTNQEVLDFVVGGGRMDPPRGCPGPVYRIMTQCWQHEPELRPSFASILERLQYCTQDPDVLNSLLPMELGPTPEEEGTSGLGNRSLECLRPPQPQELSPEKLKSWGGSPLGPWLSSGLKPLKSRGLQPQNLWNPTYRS
Summary of the method: as §1

[3] = target: panel of human kinases (kinase named in endpoint) (Homo sapiens, UniProt Q13882); details: 10 µM; read-out: Activity (%), BRK(h)
Sequence of panel of human kinases (kinase named in endpoint) (Homo sapiens, UniProt Q13882) (Q13882 whole entry): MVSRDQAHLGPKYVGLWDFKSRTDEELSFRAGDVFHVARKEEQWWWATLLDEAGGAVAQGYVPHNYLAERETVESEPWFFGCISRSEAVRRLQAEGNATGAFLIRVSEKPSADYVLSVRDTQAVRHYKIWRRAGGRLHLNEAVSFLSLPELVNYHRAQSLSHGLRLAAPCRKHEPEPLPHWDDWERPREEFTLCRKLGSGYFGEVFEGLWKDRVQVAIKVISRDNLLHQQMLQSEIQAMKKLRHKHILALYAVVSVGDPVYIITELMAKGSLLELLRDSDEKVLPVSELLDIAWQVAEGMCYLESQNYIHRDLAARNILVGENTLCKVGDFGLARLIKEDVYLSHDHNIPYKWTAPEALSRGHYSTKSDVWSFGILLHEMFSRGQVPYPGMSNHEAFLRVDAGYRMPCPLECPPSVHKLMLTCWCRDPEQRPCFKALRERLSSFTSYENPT
Summary of the method: as §1

[4] = target: panel of human kinases (kinase named in endpoint) (Homo sapiens, UniProt O94806); details: 10 µM; read-out: Activity (%), PKD3(h)
Sequence of panel of human kinases (kinase named in endpoint) (Homo sapiens, UniProt O94806) (O94806 whole entry): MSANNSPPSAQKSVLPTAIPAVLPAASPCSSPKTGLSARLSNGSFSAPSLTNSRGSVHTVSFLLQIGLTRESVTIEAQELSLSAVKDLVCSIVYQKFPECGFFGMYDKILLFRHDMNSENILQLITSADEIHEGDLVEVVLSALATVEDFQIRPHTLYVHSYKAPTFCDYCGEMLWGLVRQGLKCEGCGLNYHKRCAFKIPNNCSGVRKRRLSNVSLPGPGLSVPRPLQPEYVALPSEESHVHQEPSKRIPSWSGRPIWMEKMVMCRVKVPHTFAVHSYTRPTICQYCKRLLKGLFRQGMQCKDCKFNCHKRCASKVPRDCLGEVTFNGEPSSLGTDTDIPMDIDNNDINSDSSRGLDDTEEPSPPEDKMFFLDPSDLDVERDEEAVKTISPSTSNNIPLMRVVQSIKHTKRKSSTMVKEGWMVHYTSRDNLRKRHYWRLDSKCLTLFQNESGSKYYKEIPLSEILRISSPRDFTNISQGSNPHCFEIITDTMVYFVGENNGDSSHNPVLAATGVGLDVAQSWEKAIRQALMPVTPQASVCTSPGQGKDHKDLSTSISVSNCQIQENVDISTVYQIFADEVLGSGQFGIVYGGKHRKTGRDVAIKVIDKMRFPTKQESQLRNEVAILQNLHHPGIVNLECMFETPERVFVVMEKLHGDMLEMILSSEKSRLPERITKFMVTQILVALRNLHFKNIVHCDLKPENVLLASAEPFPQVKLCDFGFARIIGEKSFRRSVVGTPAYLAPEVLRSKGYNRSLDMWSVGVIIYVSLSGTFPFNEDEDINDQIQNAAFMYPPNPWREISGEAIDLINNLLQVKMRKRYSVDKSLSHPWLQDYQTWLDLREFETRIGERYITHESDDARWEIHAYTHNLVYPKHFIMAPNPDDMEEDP
Summary of the method: as §1

[5] = target: panel of human kinases (kinase named in endpoint) (Homo sapiens, UniProt P00533, L858R/T790M); details: 10 µM; read-out: Activity (%), EGFR(T790M,L858R)(h)
Summary of the method: as §1

[6] = target: panel of human kinases (kinase named in endpoint) (Homo sapiens, UniProt P49674); details: 10 µM; read-out: Activity (%), CK1ε(h)
Sequence of panel of human kinases (kinase named in endpoint) (Homo sapiens, UniProt P49674) (P49674 whole entry): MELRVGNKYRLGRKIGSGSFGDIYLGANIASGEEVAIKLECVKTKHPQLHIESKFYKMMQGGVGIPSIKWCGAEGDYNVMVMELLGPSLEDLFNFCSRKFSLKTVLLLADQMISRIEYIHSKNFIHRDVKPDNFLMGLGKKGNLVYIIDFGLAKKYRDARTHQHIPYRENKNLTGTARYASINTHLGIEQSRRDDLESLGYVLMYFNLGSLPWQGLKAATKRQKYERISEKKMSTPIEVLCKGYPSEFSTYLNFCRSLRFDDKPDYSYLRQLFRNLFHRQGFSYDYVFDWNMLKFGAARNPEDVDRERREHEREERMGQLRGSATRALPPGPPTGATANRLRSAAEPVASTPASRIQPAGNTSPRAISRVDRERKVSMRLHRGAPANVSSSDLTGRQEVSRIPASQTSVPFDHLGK
Summary of the method: as §1

[7] = target: panel of human kinases (kinase named in endpoint) (Homo sapiens, UniProt P54760); details: 10 µM; read-out: Activity (%), EphB4(h)
Summary of the method: as §1

[8] = target: panel of human kinases (kinase named in endpoint) (Homo sapiens, UniProt P41240); details: 10 µM; read-out: Activity (%), CSK(h)
Sequence of panel of human kinases (kinase named in endpoint) (Homo sapiens, UniProt P41240) (P41240 whole entry): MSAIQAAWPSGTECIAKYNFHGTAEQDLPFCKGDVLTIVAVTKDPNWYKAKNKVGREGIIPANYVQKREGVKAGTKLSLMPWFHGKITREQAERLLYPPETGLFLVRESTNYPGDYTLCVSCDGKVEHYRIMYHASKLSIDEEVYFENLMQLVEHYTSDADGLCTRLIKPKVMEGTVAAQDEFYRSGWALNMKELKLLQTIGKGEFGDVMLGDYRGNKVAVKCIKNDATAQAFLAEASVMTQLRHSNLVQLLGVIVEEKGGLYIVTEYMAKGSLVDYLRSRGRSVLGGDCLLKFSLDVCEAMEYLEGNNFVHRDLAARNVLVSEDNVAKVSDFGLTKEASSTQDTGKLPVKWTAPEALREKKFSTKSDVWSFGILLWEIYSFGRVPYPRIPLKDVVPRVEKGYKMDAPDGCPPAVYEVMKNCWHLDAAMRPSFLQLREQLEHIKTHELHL
Summary of the method: as §1

[9] = target: panel of human kinases (kinase named in endpoint) (Homo sapiens, UniProt P10721, V560G); details: 10 µM; read-out: Activity (%), cKit(V560G)(h)
Summary of the method: as §1

[10] = target: panel of human kinases (kinase named in endpoint) (Homo sapiens, UniProt P00519, T315I); details: 10 µM; read-out: Activity (%), Abl(T315I)(h)
Summary of the method: as §1

[11] = target: panel of human kinases (kinase named in endpoint) (Homo sapiens, UniProt Q9NYL2); details: 10 µM; read-out: Activity (%), ZAK(h)
Sequence of panel of human kinases (kinase named in endpoint) (Homo sapiens, UniProt Q9NYL2) (Q9NYL2 whole entry): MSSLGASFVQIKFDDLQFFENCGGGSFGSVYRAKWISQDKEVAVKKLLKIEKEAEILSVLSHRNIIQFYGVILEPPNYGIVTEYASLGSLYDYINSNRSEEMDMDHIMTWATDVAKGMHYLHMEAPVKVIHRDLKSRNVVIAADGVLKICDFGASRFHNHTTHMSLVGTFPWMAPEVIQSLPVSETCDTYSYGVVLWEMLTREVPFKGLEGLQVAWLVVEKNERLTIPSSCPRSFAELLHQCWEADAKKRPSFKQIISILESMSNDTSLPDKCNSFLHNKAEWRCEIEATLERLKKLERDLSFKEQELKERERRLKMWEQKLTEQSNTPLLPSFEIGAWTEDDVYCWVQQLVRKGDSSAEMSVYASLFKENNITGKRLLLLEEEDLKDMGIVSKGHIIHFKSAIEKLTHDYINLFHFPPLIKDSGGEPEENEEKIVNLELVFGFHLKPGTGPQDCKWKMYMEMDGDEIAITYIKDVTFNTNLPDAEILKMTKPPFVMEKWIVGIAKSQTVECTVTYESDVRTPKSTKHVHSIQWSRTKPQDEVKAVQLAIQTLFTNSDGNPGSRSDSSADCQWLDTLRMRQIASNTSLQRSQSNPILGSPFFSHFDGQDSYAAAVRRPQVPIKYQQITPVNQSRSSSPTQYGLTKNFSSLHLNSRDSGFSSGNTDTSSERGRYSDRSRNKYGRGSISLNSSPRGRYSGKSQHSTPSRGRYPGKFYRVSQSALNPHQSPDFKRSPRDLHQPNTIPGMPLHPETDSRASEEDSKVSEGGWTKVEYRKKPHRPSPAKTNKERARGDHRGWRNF
Summary of the method: as §1

[12] = target: panel of human kinases (kinase named in endpoint) (Homo sapiens, UniProt Q13873); details: 10 µM; read-out: Activity (%), BMPR2(h)
Summary of the method: as §1

[13] = target: panel of human kinases (kinase named in endpoint) (Homo sapiens, UniProt Q9BYP7); details: 10 µM; read-out: Activity (%), WNK3(h)
Summary of the method: as §1

[14] = target: panel of human kinases (kinase named in endpoint) (Homo sapiens, UniProt P08581, Y1230H); details: 10 µM; read-out: Activity (%), Met(Y1248H)(h)
Summary of the method: as §1

[15] = target: panel of human kinases (kinase named in endpoint) (Homo sapiens, UniProt P00533, L861Q); details: 10 µM; read-out: Activity (%), EGFR(L861Q)(h)
Summary of the method: as §1

[16] = target: panel of human kinases (kinase named in endpoint) (Homo sapiens, UniProt Q96RR4); details: 10 µM; read-out: Activity (%), CaMKK2(h)
Sequence of panel of human kinases (kinase named in endpoint) (Homo sapiens, UniProt Q96RR4) (Q96RR4 whole entry): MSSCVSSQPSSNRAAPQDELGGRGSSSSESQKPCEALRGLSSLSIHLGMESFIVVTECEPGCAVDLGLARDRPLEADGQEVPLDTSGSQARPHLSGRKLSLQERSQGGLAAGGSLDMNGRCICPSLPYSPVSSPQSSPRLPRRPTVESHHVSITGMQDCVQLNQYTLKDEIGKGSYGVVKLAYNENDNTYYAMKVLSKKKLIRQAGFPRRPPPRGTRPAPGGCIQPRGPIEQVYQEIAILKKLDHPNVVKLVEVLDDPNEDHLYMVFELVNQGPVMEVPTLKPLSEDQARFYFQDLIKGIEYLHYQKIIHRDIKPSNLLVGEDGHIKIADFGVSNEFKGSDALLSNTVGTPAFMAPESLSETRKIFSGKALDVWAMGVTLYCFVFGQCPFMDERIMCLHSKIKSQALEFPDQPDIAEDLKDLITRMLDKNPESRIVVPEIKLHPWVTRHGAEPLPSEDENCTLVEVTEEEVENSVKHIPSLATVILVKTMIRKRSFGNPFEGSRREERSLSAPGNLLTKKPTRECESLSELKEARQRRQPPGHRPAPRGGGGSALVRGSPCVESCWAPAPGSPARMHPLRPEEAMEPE
Summary of the method: as §1

[17] = target: panel of human kinases (kinase named in endpoint) (Homo sapiens, UniProt Q9NYV4); details: 10 µM; read-out: Activity (%), CDK12/cyclinK(h)
Summary of the method: as §1

[18] = target: panel of human kinases (kinase named in endpoint) (Homo sapiens, UniProt P08581, D1228N); details: 10 µM; read-out: Activity (%), Met(D1246N)(h)
Summary of the method: as §1

[19] = target: panel of human kinases (kinase named in endpoint) (Homo sapiens, UniProt Q92630); details: 10 µM; read-out: Activity (%), DYRK2(h)
Sequence of panel of human kinases (kinase named in endpoint) (Homo sapiens, UniProt Q92630) (Q92630 whole entry): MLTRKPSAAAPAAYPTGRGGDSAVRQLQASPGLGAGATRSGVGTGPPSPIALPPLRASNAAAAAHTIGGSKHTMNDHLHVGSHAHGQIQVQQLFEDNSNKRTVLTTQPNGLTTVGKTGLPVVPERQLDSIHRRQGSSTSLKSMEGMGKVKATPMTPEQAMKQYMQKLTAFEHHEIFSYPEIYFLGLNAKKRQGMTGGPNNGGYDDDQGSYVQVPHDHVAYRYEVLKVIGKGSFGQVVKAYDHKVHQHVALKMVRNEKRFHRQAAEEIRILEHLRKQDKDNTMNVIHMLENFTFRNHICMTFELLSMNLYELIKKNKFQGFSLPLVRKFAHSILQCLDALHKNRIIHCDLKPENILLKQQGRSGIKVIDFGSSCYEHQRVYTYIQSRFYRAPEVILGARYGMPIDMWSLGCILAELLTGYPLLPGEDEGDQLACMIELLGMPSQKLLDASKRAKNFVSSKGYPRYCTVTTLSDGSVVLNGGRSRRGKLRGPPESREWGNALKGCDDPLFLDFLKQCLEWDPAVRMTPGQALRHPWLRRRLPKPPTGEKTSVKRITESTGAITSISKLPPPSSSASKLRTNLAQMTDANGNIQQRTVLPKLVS
Summary of the method: as §1

[20] = target: panel of human kinases (kinase named in endpoint) (Homo sapiens, UniProt P54764); details: 10 µM; read-out: Activity (%), EphA4(h)
Summary of the method: as §1

[21] = target: panel of human kinases (kinase named in endpoint) (Homo sapiens, UniProt Q9BXA7); details: 10 µM; read-out: Activity (%), TSSK1(h)
Summary of the method: as §1

[22] = target: panel of human kinases (kinase named in endpoint) (Homo sapiens, UniProt P08581, Y1230C); details: 10 µM; read-out: Activity (%), Met(Y1248C)(h)
Summary of the method: as §1

[23] = target: panel of human kinases (kinase named in endpoint) (Homo sapiens, UniProt Q13188); details: 10 µM; read-out: Activity (%), MST2(h)
Summary of the method: as §1

[24] = target: panel of human kinases (kinase named in endpoint) (Homo sapiens, UniProt O15530); details: 10 µM; read-out: Activity (%), PDK1(h)
Summary of the method: as §1

For CC(C)C(=O)Nc1nc2cc(-c3ccc4c(c3)c(C(=O)NC(C)c3ccccc3)cn4C)ccn2n1 (stereo not drawn) [RI-962], the activity at 10 µM [1] was 107%, the activity at 10 µM [2] was 100% and the activity at 10 µM [3] was 101%. The activity at 10 µM [4] was 104%, the activity at 10 µM [5] was 85% and the activity at 10 µM [6] was 83%. The activity at 10 µM [7] was 90%, the activity at 10 µM [8] was 76% and the activity at 10 µM [9] was 95%. For the same compound, the activity at 10 µM [10] was 132%, the activity at 10 µM [11] was 72% and the activity at 10 µM [12] was 105%. For the same compound, the activity at 10 µM [13] was 75%, the activity at 10 µM [14] was 99% and the activity at 10 µM [15] was 82%. The activity at 10 µM [16] was 81%, the activity at 10 µM [17] was 117% and the activity at 10 µM [18] was 125%. For the same compound, the activity at 10 µM [19] was 92%, the activity at 10 µM [20] was 77% and the activity at 10 µM [21] was 84%. It also gave an activity at 10 µM [22] of 116%, an activity at 10 µM [23] of 64% and an activity at 10 µM [24] of 101%.
